Target: T1, Mouse WT SLACK (Mus musculus, UniProt Q6ZPR4)
T1 construct: expressed in transfected cells; host or cells: CHO-K1
T1 sequence (Q6ZPR4 1-1224): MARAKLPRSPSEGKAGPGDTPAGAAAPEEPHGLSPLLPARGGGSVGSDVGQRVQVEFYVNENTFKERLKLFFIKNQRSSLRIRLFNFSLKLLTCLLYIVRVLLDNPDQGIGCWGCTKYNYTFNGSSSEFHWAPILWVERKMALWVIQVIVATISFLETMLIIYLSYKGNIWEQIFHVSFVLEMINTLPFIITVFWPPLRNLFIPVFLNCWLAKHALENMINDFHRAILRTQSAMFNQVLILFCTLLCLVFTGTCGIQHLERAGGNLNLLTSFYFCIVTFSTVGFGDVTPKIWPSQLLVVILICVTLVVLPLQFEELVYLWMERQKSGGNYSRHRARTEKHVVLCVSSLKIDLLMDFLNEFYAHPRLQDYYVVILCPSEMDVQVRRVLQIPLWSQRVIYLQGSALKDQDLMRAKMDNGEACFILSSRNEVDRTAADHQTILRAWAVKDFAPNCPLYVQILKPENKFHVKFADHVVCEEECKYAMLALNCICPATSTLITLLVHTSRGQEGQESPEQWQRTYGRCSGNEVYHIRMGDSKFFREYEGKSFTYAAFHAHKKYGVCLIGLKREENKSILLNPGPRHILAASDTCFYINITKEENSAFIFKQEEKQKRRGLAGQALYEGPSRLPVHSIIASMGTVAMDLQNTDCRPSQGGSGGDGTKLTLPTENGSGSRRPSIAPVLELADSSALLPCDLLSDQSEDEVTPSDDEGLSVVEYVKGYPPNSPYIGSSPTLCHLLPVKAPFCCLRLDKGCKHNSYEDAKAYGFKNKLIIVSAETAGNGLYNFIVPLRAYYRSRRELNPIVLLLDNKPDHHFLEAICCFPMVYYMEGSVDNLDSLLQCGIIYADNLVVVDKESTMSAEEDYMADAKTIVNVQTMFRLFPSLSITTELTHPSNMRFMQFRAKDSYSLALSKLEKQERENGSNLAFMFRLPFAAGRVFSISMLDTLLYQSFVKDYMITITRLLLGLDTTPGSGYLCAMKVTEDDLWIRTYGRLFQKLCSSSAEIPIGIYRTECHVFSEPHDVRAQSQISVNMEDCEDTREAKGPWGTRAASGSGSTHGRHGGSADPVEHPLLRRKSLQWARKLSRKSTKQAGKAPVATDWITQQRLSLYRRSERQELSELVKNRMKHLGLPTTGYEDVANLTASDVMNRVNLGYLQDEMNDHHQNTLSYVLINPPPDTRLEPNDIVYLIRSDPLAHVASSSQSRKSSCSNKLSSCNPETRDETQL
Test: Whole-cell APC in CHO-K1 cells stably expressing mouse WT SLACK
Assay type: cell-based
Conditions: for IC50: APC, CHO-K1 cells; for Imax: maximum inhibition at 30 µM standardized to VU0606170 (set at 100%)
Experimental: Finally, we chose to screen the same two compounds versus mouse SLACK and two clinically relevant GOF SLACK mutants in APC assays utilizing CHO-K1 cells stably expressing these targets (Table 7). Screening versus the mouse homolog was deemed important for evaluating the potential of the series to ultimately lead to a useful in vivo tool via further optimization.
Automated patch clamp recording was performed with a SyncroPatch 768 PE system (Nanion, Munich, Germany) as previously described. Whole-cell recordings were performed at room temperature. Cells were harvested by first washing with PBS without Mg^2+ or Ca^2+ (Gibco, Billings, MT, USA) to remove cell culture medium, followed by dissociation with TryPLE (Gibco, Billings, MT, USA). Cells were then resuspended and diluted to 200,000 cells/mL in external solution. External solution contained 105 mM NaCl, 4 mM KCl, 1 mM MgCl2, 5 mM CaCl2, 10 mM HEPES, 40 mM N-Methyl-D-glucamine chloride, titrated to pH 7.4 with NaOH and osmolarity of 300 mOsm/kg; internal solution contained 70 mM NaCl, 70 mM KF, 10 mM KCl, 5 mM EGTA, 5mM HEPES, titrated to a pH 7.2 with KOH and osmolarity of 295 mOsm/kg.
The APC protocol was set as following: Cells were held at […] −80 mV for 100 ms, then a ramp protocol was performed from −100 mV to 80 mV at 0.4 mV/ms, hold the cell at −80 mV for another 100 ms, then steps were performed at −20 mV, 0 mV, +20 mV, +40 mV, and +60 mV for 100 ms of each step. Whole-cell currents were measured at 0 mV and normalized to current after external buffer addition.

| SMILES | IC50 | Imax |
| --- | --- | --- |
| CC(C)(Oc1ccc(Cl)cc1)C(=O)Nc1cnc(Oc2c(F)cccc2F)nc1 [Analog 40] | 320 nM | 100% |
| CN(c1ccc(C#N)cc1)c1ncc(NC(=O)C(C)(C)Oc2ccc(Cl)cc2)cn1 [Analog 66] | 790 nM | 91% |
